The values that follow come from patent publication US12064459B2, “Compositions and methods for improving skin health and for the treatment and prevention of diseases, disorders and conditions associated with pathogenic microbes” (priority 2019, dated 2024).

The test system of one test is DB00118. The test can be described thus: Antibiotic MIC tests. The test is classed as cell-based, Janthinobacterium lividum. The conditions noted are these: strain DB00118. As for the experimental part:
(§1) The antibiotic resistance profile and MICs tests were performed using Janthinobacterium lividum grown from cultures purified and grown in vegitone LB broth.

The test system of the next test is DB00121. The test can be described thus: Antibiotic MIC tests. The format is cell-based, Janthinobacterium lividum. To be noted: strain DB00121. As for the experimental part: as §1
The subject of a further test is DB02378. The test can be described thus: Antibiotic MIC tests. The format is cell-based, Janthinobacterium lividum. To be noted: strain DB02378. As for the experimental part: as §1
A further test relates to DB02473. The test can be described thus: Antibiotic MIC tests. The test is classed as cell-based, Janthinobacterium lividum. The conditions noted are these: strain DB02473. How it is done: as §1
Test [1] concerns E. Coli ATCC25922. The test can be described thus: Antibiotic MIC tests. The conditions noted are these: Escherichia coli. The test is classed as cell-based.
Test [2] deals with E. Coli ATCC25922. The conditions noted are these: cited from earlier work.
The test system of test [3] is Janthinobacterium lividum strains. In words: Antibiotic MIC tests, resistance profile in words. The test is classed as cell-based. To be noted: Table 7 and 8. How it is done:
as §1

For test [4] the test system is unchanged. In words: Internal antibiotic resistance tests (BD BBL Sensi-Disc, zone of inhibition). The test is classed as cell-based. To be noted: all 5 strains; disc content per antibiotic (e.g. penicillin 10 IU); FIG. 5. As for the experimental part: One Janthinobacterium lividum colony of 3-day old grown in 50% BHI agar was mixed well in 1 ml of 1×PBS buffer, diluted 10× and 100×, respectively. 200 μl of diluted Janthinobacterium lividum cells were evenly plated onto R2A/BHI agar plates in triplicate in 150 mm petri dishes. Antibiotic discs (BD BBL Sensi-Disc antimicrobial susceptibility test discs) were dispensed using a Disc dispenser (BD BBL Sensi-Disc Designer Dispenser System, 12-Place). Plates were incubated for 2-3 days at room temperature and imaged at the end of incubation.
The sensitivity of Janthinobacterium lividum to antibiotics is reflected by a clear zone of inhibition of Janthinobacterium lividum cells surrounding the antibiotic discs. The zone of inhibition was measured using ImageJ and was transformed into cm for analysis.

Where [5] appears, read: Janthinobacterium lividum, read-out: MIC.

≈ marks a conversion by molar mass, not a printed value. Where two headings read alike, the source gives them in different places. Where a SMILES comes first, the peptide text is derived from it. Bridges are numbered along the chain shown (N, C = ends). [ ]: non-standard residue; d: D form. The star is where a group is joined. Ileψ(thiazoline)Cys = CC[C@H](C)[C@H](N)C1=N[C@H](C(=O)*)CS1; dOrn = NCCC[C@@H](N)C(=O)O

Broadly, the MIC is the lowest concentration found to suppress growth.

On to `NCC[C@H](O)C(=O)N[C@@H]1C[C@H](N)[C@@H](O[C@H]2O[C@H](CN)[C@@H](O)[C@H](O)[C@H]2O)[C@H](O)[C@H]1O[C@H]1O[C@H](CO)[C@@H](O)[C@H](N)[C@H]1O` [Amikacin], for which the MIC amounted to 2 µg/mL (≈ 3.42 µM) in the test with DB00118 (setting [5]); 1 µg/mL (≈ 1.71 µM) with DB00121 (setting [5]); 2 µg/mL (≈ 3.42 µM) with DB02378 (setting [5]); 2 µg/mL (≈ 3.42 µM) with DB02473 (setting [5]); 2 µg/mL (≈ 3.42 µM) against E. Coli ATCC25922 [1]. Also, the “MIC, CLSI QC ranges” value in the test with E. Coli ATCC25922 [2] was 0.5 to 4 µg/mL.
In the case of `C[C@H]1[C@H](NC(=O)/C(=N\OC(C)(C)C(=O)O)c2csc(N)n2)C(=O)N1S(=O)(=O)O` [Aztreonam], the “sensitivity of Janthinobacterium lividum strains to antibiotics” value (from here on “sensitivity … to antibiotics”) in test [3] was “less sensitive”. Further, the MIC was found to be 32 µg/mL (≈ 73.5 µM) in the test on DB00118 (setting [5]); 16 µg/mL (≈ 36.7 µM) in the test with DB00121 (setting [5]); 16 µg/mL (≈ 36.7 µM) with DB02378 (setting [5]); 16 µg/mL (≈ 36.7 µM) in the test on DB02473 (setting [5]); 0.25 µg/mL (≈ 0.574 µM) against E. Coli ATCC25922 [1].
As to `CC[C@H](C)[C@H](N)C1=N[C@H](C(=O)N[C@@H](CC(C)C)C(=O)N[C@H](CCC(=O)O)C(=O)N[C@H](C(=O)N[C@H]2CCCCNC(=O)[C@H](CC(N)=O)NC(=O)[C@@H](CC(=O)O)NC(=O)[C@H](Cc3cnc[nH]3)NC(=O)[C@@H](Cc3ccccc3)NC(=O)[C@H]([C@@H](C)CC)NC(=O)[C@@H](CCCN)NC2=O)[C@@H](C)CC)CS1` [Bacitracin] ({Ileψ(thiazoline)Cys}-L[dE]IK[dOrn]I[dF]H[dD]N; lactam 4-C), the “sensitivity … to antibiotics” value in test [3] is listed as “resistant”. The MIC in the test with DB00118 (setting [5]), in the test on DB00121 (setting [5]), in the test on DB02378 (setting [5]), in the test with DB02473 (setting [5]) and against E. Coli ATCC25922 [1] was greater than 64 µg/mL each time.
`O=C(N[C@H](CO)[C@H](O)c1ccc([N+](=O)[O-])cc1)C(Cl)Cl` [Chloramphenicol]: in test [4], the “sensitivity of Janthinobacterium lividum to antibiotic discs” value (shortened to “sensitivity … to antibiotic discs”) was “sensitive”. The “sensitivity … to antibiotics” value in test [3] is listed as “less sensitive”. In addition, the minimal inhibitory concentration (MIC) in the test on DB00118 (setting [5]) turned out to be 2 µg/mL (≈ 6.19 µM); in the test on DB00121 (setting [5]), 2 µg/mL (≈ 6.19 µM); with DB02378 (setting [5]) it was 2 µg/mL (≈ 6.19 µM); in the test with DB02473 (setting [5]), 2 µg/mL (≈ 6.19 µM); against E. Coli ATCC25922 [1], 4 µg/mL (≈ 12.4 µM). In the test with E. Coli ATCC25922 [2], the “MIC, CLSI QC ranges” value was 2 to 8 µg/mL.
With `O=C(O)c1cn(C2CC2)c2cc(N3CCNCC3)c(F)cc2c1=O` [Ciprofloxacin], the “sensitivity … to antibiotic discs” value in test [4] is recorded as “sensitive”. In addition, the MIC in the test with DB00118 (setting [5]) is 0.5 µg/mL (≈ 1.51 µM); with DB00121 (setting [5]), 0.25 µg/mL (≈ 0.754 µM); with DB02378 (setting [5]), 0.5 µg/mL (≈ 1.51 µM); in the test with DB02473 (setting [5]), 0.5 µg/mL (≈ 1.51 µM).
Turning to `CC[C@H]1OC(=O)[C@H](C)[C@@H](O[C@H]2C[C@@](C)(OC)[C@@H](O)[C@H](C)O2)[C@H](C)[C@@H](O[C@@H]2O[C@H](C)C[C@H](N(C)C)[C@H]2O)[C@](C)(O)C[C@@H](C)C(=O)[C@H](C)[C@@H](O)[C@]1(C)O` [Erythromycin], the “sensitivity … to antibiotic discs” value in test [4] is given as “sensitive”. The MIC was 15 µg/mL (≈ 20.4 µM) in the test on DB00118 (setting [5]); 8 µg/mL (≈ 10.9 µM) with DB00121 (setting [5]); 8 µg/mL (≈ 10.9 µM) in the test on DB02378 (setting [5]); 15 µg/mL (≈ 20.4 µM) with DB02473 (setting [5]); 64 µg/mL (≈ 87.2 µM) in the test on E. Coli ATCC25922 [1].
Consider `C[C@@H](O)[C@H]1C(=O)N2C(C(=O)O)=C(S[C@@H]3CN[C@H](C(=O)N(C)C)C3)[C@H](C)[C@H]12` [Meropenem], for which the “sensitivity … to antibiotics” value in test [3] is reported as “less sensitive”. In addition, the MIC in the test with DB00118 (setting [5]) is 2 µg/mL (≈ 5.22 µM); with DB00121 (setting [5]), 8 µg/mL (≈ 20.9 µM); in the test with DB02378 (setting [5]), 2 µg/mL (≈ 5.22 µM); with DB02473 (setting [5]), 2 µg/mL (≈ 5.22 µM); in the test with E. Coli ATCC25922 [1], less than 0.063 µg/mL.
For `CN(C)[C@@H]1C(O)=C(C(N)=O)C(=O)[C@@]2(O)C(O)=C3C(=O)c4c(O)cccc4[C@@](C)(O)[C@H]3C[C@@H]12` [Tetracycline], the MIC in the test on DB00118 (setting [5]) came to 0.5 µg/mL (≈ 1.13 µM); with DB00121 (setting [5]) it was 0.25 µg/mL (≈ 0.563 µM); in the test with DB02378 (setting [5]) it was 0.5 µg/mL (≈ 1.13 µM); with DB02473 (setting [5]) it was 0.5 µg/mL (≈ 1.13 µM); in the test with E. Coli ATCC25922 [1] it was 1 µg/mL (≈ 2.25 µM).
As to `CC1(C)S[C@@H]2[C@H](NC(=O)[C@H](N)c3ccccc3)C(=O)N2[C@H]1C(=O)O` [ampicillin], in test [4], the “sensitivity … to antibiotic discs” value is recorded as “sensitive”.
The same measure, in the same setting: the entry for `CC(=O)OCC1=C(C(=O)O)N2C(=O)[C@@H](NC(=O)Cc3cccs3)[C@H]2SC1` [cephalothin] is “sensitive”.
Same read-out and setting: as for `[H]/N=C(/N)N[C@H]1[C@H](O)[C@@H](O)[C@H](O[C@@H]2O[C@@H](C)[C@](O)(C=O)[C@H]2O[C@@H]2O[C@@H](CO)[C@H](O)[C@@H](O)[C@@H]2NC)[C@@H](N/C(N)=N\[H])[C@@H]1O` [streptomycin], the entry is “sensitive”; as for `CN[C@H](CC(C)C)C(=O)N[C@H]1C(=O)N[C@@H](CC(N)=O)C(=O)N[C@H]2C(=O)N[C@H]3C(=O)N[C@H](C(=O)N[C@H](C(=O)O)c4cc(O)cc(O)c4-c4cc3ccc4O)[C@H](O)c3ccc(c(Cl)c3)Oc3cc2cc(c3O[C@@H]2O[C@H](CO)[C@@H](O)[C@H](O)[C@H]2O[C@H]2C[C@](C)(N)[C@H](O)[C@H](C)O2)Oc2ccc(cc2Cl)[C@H]1O` [vancomycin], “sensitive”.
Turning to Amoxicillin clavulanate, in test [3], the “sensitivity … to antibiotics” value is “less sensitive”. Besides, the MIC in the test with DB00118 is 1 µg/mL; with DB00121 it was 0.5 µg/mL; with DB02378, 1 µg/mL; against DB02473, 1 µg/mL.
As for penicillin, the “sensitivity … to antibiotic discs” value in test [4] is “sensitive”.
